Results published in patent US12637440B2, “Amide derivative useful as diacylglycerol acyltransferase 2 inhibitor, and use thereof” (LG CHEM, LTD., priority 2019, dated 2026).

target: T1, Recombinant human DGAT2 protein (Homo sapiens, UniProt Q96PD7); assay: Measurement of inhibitory effect against DGAT2 enzyme activity (SPA, Phospholipid FlashPlate, [14C]-TG production); assay type: biochemical; details: concentration inhibiting [14C]-labeled triacyl glycerol (TG) production by 50%; 2 μg DGAT2-membrane protein from Sf-21 cells, 37° C.
T1 construct: FLAG (DYKDDDDK); (N); made in house; host or cells: Sf-21 insect cells (BacPAK baculovirus system); used as a membrane preparation
T1 sequence (Q96PD7 1-388): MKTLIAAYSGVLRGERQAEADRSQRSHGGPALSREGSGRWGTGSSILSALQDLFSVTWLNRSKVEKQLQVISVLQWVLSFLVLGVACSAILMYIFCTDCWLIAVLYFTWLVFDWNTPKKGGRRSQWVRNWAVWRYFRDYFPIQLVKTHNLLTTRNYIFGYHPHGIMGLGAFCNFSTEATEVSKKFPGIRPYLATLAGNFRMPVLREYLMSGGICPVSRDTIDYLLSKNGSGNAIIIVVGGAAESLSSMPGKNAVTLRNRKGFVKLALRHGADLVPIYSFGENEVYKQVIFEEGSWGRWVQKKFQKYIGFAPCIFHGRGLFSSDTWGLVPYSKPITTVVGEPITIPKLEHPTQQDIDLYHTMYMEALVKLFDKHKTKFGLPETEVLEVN
Method: Experimental Example: Measurement of Inhibitory Effect Against DGAT2 Enzyme Activity
In order to prepare the pBacPAK9-DGAT2, which is DGAT2 expression vector, the human DGAT2 gene amplified by polymerase chain reaction (PCR) was cloned into the EcoR1 and Xho1 sites of the pBacPAK9 (clonctech) vector. The nucleotide sequence of the primers used in PCR was the forward primer 5′ […] and the reverse primer 5′ […]. The composition of the reaction solution was to contain 50 ng of cDNA clone (OriGene), 200 μM of dATP, dCTP, dTTP, dGTP, 200 nM of each primer, 1 unit of Tag DNA Polymerase (Toyobo), 1×PCR buffer, and the final volume was adjusted to 20 μl. The reaction conditions were denatured at 95° C. for 5 minutes, followed by 30 times of 94° C. for 20 seconds, 60° C. for 20 seconds, and 72° C. for 90 seconds, followed by further reaction at 72° C. for 7 minutes.
Recombinant human DGAT2 protein was expressed in Sf-21 cells, which are insect cells, by using the BacPack baculovirus expression system (Clontech). The brief manufacturing process is as follows. First, the pBacPAK9-DGAT2 expression vector was transfected with BacPAK6 virus DNA (Bsu36I digest) into sf21 cells using Bacfectin to prepare a recombinant DGAT2 expressing baculovirus. The thus prepared baculovirus was infected with Sf-21 cells at 10 MOI (multiplicity of infection), and after 72 hours, infected insect cells were collected and membrane proteins were isolated. For membrane protein separation, the cell pellet was dissolved in a sucrose solution containing 250 mM sucrose, 10 mM Tris (pH 7.4), and 1 mM ethylenediamine-tetraacetic acid (EDTA), and then homogenized by using a dounce homogenizer, and the supernatant was taken by centrifuging at 600×g for 15 minutes, and centrifuged at 100,000×g for 1 hour to discard the supernatant, and the remaining pellet was resuspended in 20 mM HEPES buffer (pH 7.4). The prepared DGAT2 overexpressing membrane protein was dispensed in 100 μl and stored at −80° C. until use. Protein concentration was quantified by using the BCA Protein Assay Kit (Thermo Scientific).
In vitro DGAT2 analysis was performed using a Phospholipid Flash Plate (PerkinElmer) based on the principle of SPA (Scintillation Proximity Assay). First, DGAT2 inhibition compounds serially diluted 5 times from 3 nM to 10 μM (final concentration, 1% DMSO) were mixed in a buffer solution containing 2 μg DGAT2-membrane protein and 20 mM HEPES, 20 mM MgCl2, 1 mg/mL BSA, 50 μM 1,2 sn-oleoyl glycerol (Sigma), put in a 96-well flash plate (FlashPlate) and reacted at 37° C. for 20 minutes, and then 1 μM [14C] ole oil CoA (PerkinElmer, NEC651050UC) was added to be a final volume of 100 μL and further reacted at 37° C. for 15 minutes. After the enzymatic reaction was completed, 100 μL of isopropanol was added, the plate was sealed with a film, and the plate was shaken slowly in a plate shaker. The next day, the amplified scintillation signal (cpm) in Topcounter (Packard) was measured to measure the degree of production of [14C]-labeled triacyl glycerol (TG) as a reaction product. The measured value when the compound was not treated was used as a positive control, and the measured value of the compound treated group was calculated as a relative % to measure the inhibition effect of the compound on TG production.

**Q.** For `CCOc1ccccc1O[C@@H]1CCCN(c2cncc(NC(=O)Nc3cc(C(F)(F)F)cc(C(F)(F)F)c3)n2)C1` [Example 1, (R)-1-(3,5-bis(trifluoromethyl)phenyl)-3-(6-(3-(2-ethoxyphenoxy)piperidin-1-yl)pyrazin-2-yl)urea], which IC50 is on record?
**A.** 45 nM

**Q.** For `CCOc1ccccc1O[C@@H]1CCCN(c2cncc(NC(=O)N[C@@H](Cc3ccccc3)C(=O)O)n2)C1` [Example 2, ((6-((R)-3-(2-ethoxyphenoxy)piperidin-1-yl)pyrazin-2-yl)carbamoyl)-L-phenylalanine], which IC50 is on record?
**A.** 16000 nM

**Q.** How did the IC50 turn out when `CCOc1ccccc1O[C@@H]1CCCN(c2cncc(NC(=O)N3CCOCC3)n2)C1` [Example 3, (R)—N-(6-(3-(2-ethoxyphenoxy)piperidin-1-yl)pyrazin-2-yl)morpholine-4-carboxamide] was run?
**A.** 2300 nM

**Q.** `CCOc1ccccc1O[C@@H]1CCCN(c2cncc(NC(=O)N3CCCC3)n2)C1` [Example 4, (R)—N-(6-(3-(2-ethoxyphenoxy)piperidin-1-yl)pyrazin-2-yl)pyrrolidine-1-carboxamide] was tested. Which IC50 did it give?
**A.** 1600 nM

**Q.** How did the IC50 turn out when `CCOc1ccccc1O[C@@H]1CCCN(c2cncc(NC(=O)N3CCC(C(=O)O)C3)n2)C1` (stereo partly drawn) [Example 5, 1-((6-((R)-3-(2-ethoxyphenoxy)piperidin-1-yl)pyrazin-2-yl)carbamoyl)pyrrolidine-3-carboxylic acid] was run?
**A.** 51000 nM

**Q.** `CCOc1ccccc1O[C@@H]1CCCN(c2cncc(NC(=O)c3ccccc3)n2)C1` [Example 6, (R)—N-(6-(3-(2-ethoxyphenoxy)piperidin-1-yl)pyrazin-2-yl)benzamide] was tested. Which IC50 did it give?
**A.** 53 nM

**Q.** `CCOc1ccccc1O[C@@H]1CCCN(c2cncc(NC(=O)c3ccc(Cl)cc3)n2)C1` [Example 7, (R)-4-chloro-N-(6-(3-(2-ethoxyphenoxy)piperidin-1-yl)pyrazin-2-yl)benzamide] was tested. Which IC50 did it give?
**A.** 45 nM

**Q.** Which IC50 does the source give for `CCOc1ccccc1O[C@@H]1CCCN(c2cncc(NC(=O)c3cccc(OC)c3)n2)C1` [Example 8, (R)—N-(6-(3-(2-ethoxyphenoxy)piperidin-1-yl)pyrazin-2-yl)-3-methoxybenzamide] here?
**A.** 230 nM

**Q.** `CCOc1ccccc1O[C@@H]1CCCN(c2cncc(NC(=O)c3ccc(OC)cc3)n2)C1` [Example 9, (R)—N-(6-(3-(2-ethoxyphenoxy)piperidin-1-yl)pyrazin-2-yl)-4-methoxybenzamide] was tested. Which IC50 did it give?
**A.** 90 nM

**Q.** For `CCOc1ccccc1O[C@@H]1CCCN(c2cncc(NC(=O)c3ccc([N+](=O)[O-])cc3)n2)C1` [Example 10, (R)—N-(6-(3-(2-ethoxyphenoxy)piperidin-1-yl)pyrazin-2-yl)-4-nitrobenzamide], which IC50 is on record?
**A.** 19 nM

**Q.** How did the IC50 turn out when `CCOc1ccccc1O[C@@H]1CCCN(c2cncc(NC(=O)c3ccccc3C(=O)O)n2)C1` [Example 11, (R)-2-((6-(3-(2-ethoxyphenoxy)piperidin-1-yl)pyrazin-2-yl)carbamoyl)benzoic acid] was run?
**A.** 16000 nM

**Q.** Which IC50 does the source give for `CCOc1ccccc1O[C@@H]1CCCN(c2cncc(NC(=O)c3ccc(CC(=O)O)cc3)n2)C1` [Example 12, (R)-2-(4-((6-(3-(2-ethoxyphenoxy)piperidin-1-yl)pyrazin-2-yl)carbamoyl)phenyl)acetic acid] here?
**A.** 4000 nM

**Q.** How did the IC50 turn out when `CCOc1ccccc1O[C@@H]1CCCN(c2cncc(NC(=O)c3ccc(C(C)(C)C(=O)O)cc3)n2)C1` [Example 13, (R)-2-(4-((6-(3-(2-ethoxyphenoxy)piperidin-1-yl)pyrazin-2-yl)carbamoyl)phenyl)-2-methylpropanoic acid] was run?
**A.** 9100 nM

**Q.** How did the IC50 turn out when `CCOc1ccccc1O[C@@H]1CCCN(c2cncc(NC(=O)c3ccc(OC(C)(C)C(=O)O)cc3)n2)C1` [Example 14, (R)-2-(4-((6-(3-(2-ethoxyphenoxy)piperidin-1-yl)pyrazin-2-yl)carbamoyl)phenoxy)-2-methylpropanoic acid] was run?
**A.** 12000 nM

**Q.** How did the IC50 turn out when `CCOc1ccccc1O[C@@H]1CCCN(c2cncc(NC(=O)C3CCN(S(C)(=O)=O)CC3)n2)C1` [Example 15] was run?
**A.** 25 nM

**Q.** `CCOc1ccccc1O[C@@H]1CCCN(c2cncc(NC(=O)C3CCN(C(C)=O)CC3)n2)C1` [Example 16] was tested. Which IC50 did it give?
**A.** 390 nM

**Q.** `CCOc1ccccc1O[C@@H]1CCCN(c2cncc(NC(=O)C3CCN(S(=O)(=O)C(C)C)CC3)n2)C1` [Example 17, (R)—N-(6-(3-(2-ethoxyphenoxy)piperidin-1-yl)pyrazin-2-yl)-1-(isopropylsulfonyl)piperidine-4-carboxamide] was tested. Which IC50 did it give?
**A.** 10 nM

**Q.** With `CCOc1ccccc1O[C@@H]1CCCN(c2cncc(NC(=O)C3CCN(c4ncc(CC)cn4)CC3)n2)C1` [Example 18, (R)—N-(6-(3-(2-ethoxyphenoxy)piperidin-1-yl)pyrazin-2-yl)-1-(5-ethylpyrimidin-2-yl)piperidine-4-carboxamide] as the compound, how does the IC50 read?
**A.** 8 nM

**Q.** How did the IC50 turn out when `CCOc1ccccc1O[C@@H]1CCCN(c2cncc(NC(=O)CCC(=O)O)n2)C1` [Example 19, (R)-4-((6-(3-(2-ethoxyphenoxy)piperidin-1-yl)pyrazin-2-yl)amino)-4-oxobutanoic acid] was run?
**A.** ~15000 nM

**Q.** `CCOc1ccccc1O[C@@H]1CCCN(c2cncc(NC(=O)C3CCC[C@H]3C(=O)O)n2)C1` (stereo partly drawn) [Example 20, (1R)-2-((6-((R)-3-(2-ethoxyphenoxy)piperidin-1-yl)pyrazin-2-yl)carbamoyl)cyclopentane-1-carboxylic acid] was tested. Which IC50 did it give?
**A.** 4000 nM

**Q.** For `CCOc1ccccc1O[C@@H]1CCCN(c2cncc(NC(=O)C34CCC(C(=O)O)(CC3)CC4)n2)C1` [Example 21, (R)-4-((6-(3-(2-ethoxyphenoxy)piperidin-1-yl)pyrazin-2-yl)carbamoyl)bicyclo[2.2.2]octane-1-carboxylic acid], which IC50 is on record?
**A.** 4800 nM

**Q.** For `CCOc1ccccc1O[C@@H]1CCCN(c2cncc(NC(=O)CC(C)(C)C(=O)O)n2)C1` [Example 22, (R)-4-((6-(3-(2-ethoxyphenoxy)piperidin-1-yl)pyrazin-2-yl)amino)-2,2-dimethyl-4-oxobutanoic acid], which IC50 is on record?
**A.** 1300 nM

**Q.** For `CCOc1ccccc1O[C@@H]1CCCN(c2cncc(N3C(=O)CC(C)(C)C3=O)n2)C1` [Example 23, (R)-1-(6-(3-(2-ethoxyphenoxy)piperidin-1-yl)pyrazin-2-yl)-3,3-dimethylpyrrolidine-2,5-dione], which IC50 is on record?
**A.** 7400 nM

**Q.** With `CCOc1ccccc1O[C@@H]1CCCN(c2cncc(NC(=O)CCC(C)(C)C(=O)O)n2)C1` [Example 24, (R)-5-((6-(3-(2-ethoxyphenoxy)piperidin-1-yl)pyrazin-2-yl)amino)-2,2-dimethyl-5-oxopentanoic acid] as the compound, how does the IC50 read?
**A.** 300 nM

**Q.** With `CCOc1ccccc1O[C@@H]1CCCN(c2cncc(NC(=O)CC(C)(C)CC(=O)O)n2)C1` [Example 25, (R)-5-((6-(3-(2-ethoxyphenoxy)piperidin-1-yl)pyrazin-2-yl)amino)-3,3-dimethyl-5-oxopentanoic acid] as the compound, how does the IC50 read?
**A.** 1800 nM

**Q.** With `CCOc1ccccc1O[C@@H]1CCCN(c2cncc(NC(=O)Cc3cccc(C(F)(F)F)c3)n2)C1` [Example 26] as the compound, how does the IC50 read?
**A.** 54 nM

**Q.** Which IC50 does the source give for `CCOc1ccccc1O[C@@H]1CCCN(c2cncc(NC(=O)Cc3cc(C(F)(F)F)cc(C(F)(F)F)c3)n2)C1` [Example 27, (R)-2-(3,5-bis(trifluoromethyl)phenyl)-N-(6-(3-(2-ethoxyphenoxy)piperidin-1-yl)pyrazin-2-yl)acetamide] here?
**A.** 49 nM

**Q.** `CCOc1ccccc1O[C@@H]1CCCN(c2cncc(NC(=O)CCc3ccccc3)n2)C1` [Example 29, (R)—N-(6-(3-(2-ethoxyphenoxy)piperidin-1-yl)pyrazin-2-yl)-3-phenylpropanamide] was tested. Which IC50 did it give?
**A.** 18 nM
